Laboratory results reported in patent US20190352297A1, “SELECTIVE AURORA A KINASE INHIBITORS” (UNIVERSITAT BERN, priority 2017, published 2019).

Key:
Aurora A kinase domain = biological target: T1, Aurora A kinase domain (Homo sapiens, UniProt O14965); test: HTRF kinase assay, Aurora A; type: biochemical; conditions: free Aurora A, 20 μM ATP, HTRF; read-out: IC50 Aurora A (biochemical)
T1 construct: human Aurora A kinase domain (residues 122-403 in the pET24-d vector); His-tag (cleaved yes); made in house; host or cells: E. coli BL21 (DE3) Rosetta
T1 sequence (O14965 122-403): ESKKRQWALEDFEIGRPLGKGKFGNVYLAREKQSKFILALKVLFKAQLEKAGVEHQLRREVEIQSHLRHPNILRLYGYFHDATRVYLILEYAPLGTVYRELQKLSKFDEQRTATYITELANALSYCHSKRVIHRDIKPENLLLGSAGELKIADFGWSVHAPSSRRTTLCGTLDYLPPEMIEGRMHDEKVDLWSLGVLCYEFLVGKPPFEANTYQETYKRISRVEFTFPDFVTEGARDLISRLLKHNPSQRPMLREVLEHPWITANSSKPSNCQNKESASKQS
Experimental: The clone of human Aurora A kinase domain (residues 122-403 in the pET24-d vector) was kindly provided by the Montoya laboratory (University of Copenhagen). The construct was transformed into E. coli BL21 (DE3) Rosetta cells and protein expression was induced with 0.5 mM IPTG at 20° C. for 12 hours. The cells were harvested at 6,000×g for 25 min at 4° C. and resuspended in lysis buffer (50 mM Tris-HCl, 500 mM NaCl, 1 mM PMSF, pH=8.0). Disruption of the cells was performed by sonication cooled on ice, after which the debris were removed by centrifugation at 110,000×g for 30 min at 4° C. Aurora A was purified by affinity chromatography using NiNTA resin from Qiagen following the manufacturer's instructions. After loading, the resin was washed with lysis buffer, followed by a second wash with 6% elution buffer (50 mM Tris-HCl, 500 mM NaCl, 500 mM imidazole, pH=8.0). Protein was eluted with 100% elution buffer. The eluate was exchanged into final buffer (20 mM Tris-HCl, 200 mM NaCl, 0.5 mM EDTA, 2 mM DTT, pH=8.0) using a HiPrep 26/10 desalting column (GE Healthcare). The His-tag was cleaved with TEV protease at 4° C. overnight. […] Protein concentration was determined by UV absorbance. […]
Aurora A and AuroraB kinases were assayed using the homogeneous time-resolved fluorescence (HTRF) KinEASE STK2 kit from Cisbio (France). […] After incubation at room temperature for one hour, fluorescence was measured at 620 nm (europium cryptate) and 665 nm (XL-665) after excitation at 317 nm (lag time 60 μs, integration time 500 μs) using a Tecan Infinite M1000 PRO microplate reader (Greiner 384-well plates, white, non-binding, small volume). The ratio of fluorescence (665 nm/620 nm) was calculated for each well and the results were expressed as follows: specific signal=ratio (sample)−ratio (negative control), where ratio=665 nm/620 nm×10^4. Compounds were measured in threefold serial dilutions at 10 different concentrations, covering the concentration range from no to full inhibition. Each concentration was measured in duplicates, and two independent determinations were made for each IC50 value. […]

GFP-Aurora A-Trp277Ala = biological target: T2, GFP-Aurora A-Trp277Ala (Homo sapiens, UniProt O14965, W277A); test: Phenotypic rescue, cells expressing mutant Aurora A; type: cell-based
T2 construct: All Aurora A clones were constructed using full-length Aurora A as a template; expressed in transfected cells; host or cells: HeLa Kyoto
T2 sequence (O14965 1-403 W277A): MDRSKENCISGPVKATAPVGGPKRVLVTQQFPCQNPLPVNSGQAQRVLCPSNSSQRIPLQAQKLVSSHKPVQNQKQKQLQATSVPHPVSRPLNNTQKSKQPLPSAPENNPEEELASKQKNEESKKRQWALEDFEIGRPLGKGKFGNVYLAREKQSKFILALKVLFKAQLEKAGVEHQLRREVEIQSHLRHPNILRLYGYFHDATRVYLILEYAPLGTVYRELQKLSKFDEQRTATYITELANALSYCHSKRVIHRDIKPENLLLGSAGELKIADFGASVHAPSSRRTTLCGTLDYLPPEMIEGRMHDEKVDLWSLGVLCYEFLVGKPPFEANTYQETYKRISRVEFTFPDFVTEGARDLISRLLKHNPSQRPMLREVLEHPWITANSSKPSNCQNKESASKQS
Experimental: HeLa Kyoto cells were cultured in high-glucose DMEM with GlutaMAX (Life Technologies) media supplemented with 10% fetal calf serum (FCS) in a humidified 5% CO2 incubator at 37° C. For plasmid transfections, cells were seeded at 80-90% confluence. 4 μg of plasmid DNA in 100 μl OptiMEM and 4 μl of Lipofectamine 2000 (Life Technologies) in 100 μl OptiMEM were incubated in parallel for 5 minutes, mixed for 20 minutes and added to each well. All Aurora A clones were constructed using full-length Aurora A as a template with appropriate PCR primer pairs. […] GFP-Aurora AR137A and GFP-Aurora AW277A were engineered using a site directed mutagenesis kit (Agilent Technologies, no. 210515) with appropriate primers. For determining the mitotic index and the chromosome misalignment phenotype, cells were incubated with various concentrations of compounds for 20 h before analysis. Cells were likewise treated with 0.25 μM MLN8237 (Selleckchem, no. S1133) or 5 μM ZM447439 (Selleckchem, no. S1103). For flow cytometry analysis, 50 nM MLN8037 and 2.5 μM ZM447439 were used. […] To assess the impact of compound 9 on cell cycle progression, DNA content was analyzed after propidium iodide staining using FACS (BD Accuri C6 flow cytometer).

- IC50 (Aurora A kinase domain): 2 ± 0.5 nM
- sensitivity of GFP-Aurora A-Trp277Ala to inhibitor (GFP-Aurora A-Trp277Ala): insensitive
SMILES: CCc1ccc(N=C2SC(=Cc3ccnc(Nc4ccc(C(=O)O)cn4)c3)C(=O)N2C)cc1 [Compound 9]
